Reference: ChEMBL document CHEMBL1148103, “Antifungal steroidal glycosides from the patagonian starfish anasteriasminuta: structure-activity correlations” (2002)
Calls of active or inactive are those of the source. The rule behind the calls is not given here.

Legend:
[1] = system: Cladosporium cucumerinum; experiment: Antifungal activity against Cladosporium cucumerinum after 2 to 3 days by bioautographic assay; assay type: functional, organism-based
[2] = system: Cladosporium cucumerinum; experiment: Antifungal activity against Cladosporium cucumerinum at 10 ug/spot after 2 to 3 days by bioautographic assay; assay type: functional

CC(=O)[C@H]1CC[C@H]2[C@@H]3C[C@H](O[C@@H]4O[C@H](C)[C@@H](O)[C@H](O[C@@H]5OC[C@@H](O[C@@H]6O[C@H](CO)[C@H](O)[C@H](O)[C@H]6O[C@@H]6O[C@H](C)[C@H](O[C@@H]7O[C@H](CO)[C@H](O)[C@H](O)[C@H]7O)[C@H](O)[C@H]6O)[C@H](O)[C@H]5O[C@@H]5O[C@H](C)[C@@H](O)[C@H](O)[C@H]5O)[C@H]4O)[C@H]4C[C@@H](OS(=O)(=O)O)CC[C@]4(C)C3=CC[C@]12C was tested, and the Activity [1] was “inactive”.
In the case of CC(C)CC(=O)C[C@@](C)(O)[C@H]1CC[C@H]2[C@@H]3C[C@H](O[C@@H]4O[C@H](C)[C@@H](O)[C@H](O[C@@H]5OC[C@@H](O[C@@H]6O[C@H](CO)[C@H](O)[C@H](O)[C@H]6O[C@@H]6O[C@H](C)[C@H](O)[C@H](O)[C@H]6O)[C@H](O)[C@H]5O[C@@H]5O[C@H](C)[C@@H](O)[C@H](O)[C@H]5O)[C@H]4O)[C@H]4C[C@@H](OS(=O)(=O)O)CC[C@]4(C)C3=CC[C@@]21C, the Activity [1] is reported as “Dose-dependent effect”.
With CCCCNC(=O)n1c(NC(=O)OC)nc2ccccc21 [BENOMYL] the “inhibition zone (IZ)” value [2] was 20 mm.
In the case of CC(C)CC(=O)C[C@@H](C)[C@H]1CC[C@H]2[C@@H]3C[C@H](O[C@@H]4O[C@H](C)[C@@H](O)[C@H](O[C@@H]5OC[C@@H](O[C@@H]6O[C@H](CO)[C@H](O)[C@H](O)[C@H]6O[C@@H]6O[C@H](C)[C@H](O[C@@H]7O[C@H](CO)[C@H](O)[C@H](O)[C@H]7O)[C@H](O)[C@H]6O)[C@H](O)[C@H]5O[C@@H]5O[C@H](C)[C@@H](O)[C@H](O)[C@H]5O)[C@H]4O)[C@H]4C[C@@H](OS(=O)(=O)O)CC[C@]4(C)C3=CC[C@]12C, the Activity [1] is reported as “Dose-dependent effect”.
For CC(C)CC(=O)C[C@@](C)(O)[C@H]1CC[C@H]2[C@@H]3C[C@H](O[C@@H]4O[C@H](C)[C@@H](O)[C@H](O[C@@H]5OC[C@@H](O[C@@H]6O[C@H](CO)[C@H](O)[C@H](O)[C@H]6O[C@@H]6O[C@H](C)[C@H](O[C@@H]7O[C@H](CO)[C@H](O)[C@H](O)[C@H]7O)[C@H](O)[C@H]6O)[C@H](O)[C@H]5O[C@@H]5O[C@H](C)[C@@H](O)[C@H](O)[C@H]5O)[C@H]4O)[C@H]4C[C@@H](OS(=O)(=O)O)CC[C@]4(C)C3=CC[C@@]21C, the Activity [1] was “Dose-dependent effect”.
In the case of CC(C)CC(=O)C[C@@](C)(O)[C@H]1CC[C@H]2[C@@H]3C[C@H](O[C@@H]4O[C@H](C)[C@@H](O)[C@H](O[C@@H]5OC[C@@H](O)[C@H](O)[C@H]5O[C@@H]5O[C@H](C)[C@@H](O)[C@H](O)[C@H]5O)[C@H]4O)[C@H]4C[C@@H](OS(=O)(=O)O)CC[C@]4(C)C3=CC[C@@]21C, the Activity [1] is reported as “inactive”.
